Publication PMC8228849, “Characterization of the Highly Efficient Acid-Stable Xylanase and β-Xylosidase System from the Fungus Byssochlamys spectabilis ATHUM 8891 (Paecilomyces variotii ATHUM 8891)” (Journal of Fungi, 2021)

B1: PvXyd3A (Paecilomyces variotii) (protein)
chain: QANTSYVNYSVQAQPDLTPRTLATIDLSFPDCTNGPLSTNLVCNTSATPWDRASALISLFTLEELVNNTGNTAPGVPRLGLPPYQVWNEALHGLDRANFTPSGDYSWATSFPMPILSMAALNRTLINQIASIIAIQGRAFNNAGRYGLDSYAPNINGFRSPMWGRGQETPGEDAQYLSAVYAYEYITGLQGLDEEHQKLLATAKHFAGYDLENWDGHSRLGNDLNISQQDLAEYYTPQFLAASRYAKVRSFMCSYNAVNGVPSCANPWLLQTLLRESFDFVDDGYVSSDCDAVYNVFNPHEYAGNQTAAAAVSLLAGTDIDCGTDYPWFLNESFYEGRVSRGDIEKSVIRLYSNLVRVGYFDGNDTEYRKLDWNDVLKTDAQNISYEAAVEGIVLLKNDGTLPLSKKVRSVALIGPWANATTQLQGNYFGPAPYLVGPLAAFQETSLQINYAFGTNISSNSTEQFAEAISAAKKSDVVVFAGGIDNTIEAEGIDRMNITWPGNQLTLIEELSKLNKPLVVLQMGGGQVDSSSLKENPKVNSLVWGGYPGQAGGYALVDILTGKRAPAGRLVTTQYPAEYATQFPATDMSLRPEGSNPGQTYMWYTGKPVYEFGSGLFYTTFSVSESSSSTKSLSVRGGNSYNIVDLLSQSHAGYEYIEQVPFLNFTVTVKNTGKTASPYSAMLFANTTNAGPAPYPNKWLVGFDRLPEINPGESTTLTIPVAIGSVARTDEDGNRILYPGTYDLALNNERDAVVSFTFTGDATVLERWPSPSS
notes: native secreted enzyme purified from culture supernatant (Brewer's Spent Grain); 78 kDa; pI between 3 and 4; GH3; once misprinted PvXyd11A

What was measured:
[1] = target: T1, PvXyd3A (Paecilomyces variotii, UniProt A0A443HSR8); experiment: pNP-X hydrolysis initial rates, Lineweaver-Burk; format: biochemical; details: competitive; substrate pNP-X; xylose at 5, 20 and 50 mM; methods text misprints the enzyme as Xyn3A
T1 construct: gene C8Q69DRAFT_305813; native secreted enzyme purified from culture supernatant (Brewer's Spent Grain); 78 kDa; pI between 3 and 4; GH3; once misprinted PvXyd11A
T1 sequence (A0A443HSR8 28-800): B1 chain

[2] = substrate: O=[N+]([O-])c1ccc(O[C@@H]2OC[C@@H](O)[C@H](O)[C@H]2O)cc1; experiment: purified protein; format: biochemical, Paecilomyces variotii; details: standard assay pH 4 citrate-phosphate, 50 °C, 0.1-20 mM pNP-X, Table 4 prints 0.45 ± 0.06 mM

Row | Molecule | Ki [1] | Km [2]
1 | OC1OC[C@@H](O)[C@H](O)[C@H]1O (some centres unmarked) [X1, xylose] | 10.2 mM | –
2 | B1 | – | 480 ± 60 µM
